{"source": "patent US8653023B1", "about": "“Dual beneficial effect of dopamine enhancing and neuroprotective actions of PKC delta inhibitors for treatment of Parkinson's disease” (Iowa State University Research Foundation, Inc., priority 2006, dated 2014)", "key": {"PKCδ [1]": {"target": "T1, PKCδ (Mus musculus, UniProt P28867)", "T1 construct": "PKCδ was immunoprecipitated from SN lysates of both rottlerin-mice and vehicle-mice using PKCδ specific polyclonal antibody; from tissue; host or cells: substantia nigra of C57 black mice", "T1 sequence (P28867 whole entry)": "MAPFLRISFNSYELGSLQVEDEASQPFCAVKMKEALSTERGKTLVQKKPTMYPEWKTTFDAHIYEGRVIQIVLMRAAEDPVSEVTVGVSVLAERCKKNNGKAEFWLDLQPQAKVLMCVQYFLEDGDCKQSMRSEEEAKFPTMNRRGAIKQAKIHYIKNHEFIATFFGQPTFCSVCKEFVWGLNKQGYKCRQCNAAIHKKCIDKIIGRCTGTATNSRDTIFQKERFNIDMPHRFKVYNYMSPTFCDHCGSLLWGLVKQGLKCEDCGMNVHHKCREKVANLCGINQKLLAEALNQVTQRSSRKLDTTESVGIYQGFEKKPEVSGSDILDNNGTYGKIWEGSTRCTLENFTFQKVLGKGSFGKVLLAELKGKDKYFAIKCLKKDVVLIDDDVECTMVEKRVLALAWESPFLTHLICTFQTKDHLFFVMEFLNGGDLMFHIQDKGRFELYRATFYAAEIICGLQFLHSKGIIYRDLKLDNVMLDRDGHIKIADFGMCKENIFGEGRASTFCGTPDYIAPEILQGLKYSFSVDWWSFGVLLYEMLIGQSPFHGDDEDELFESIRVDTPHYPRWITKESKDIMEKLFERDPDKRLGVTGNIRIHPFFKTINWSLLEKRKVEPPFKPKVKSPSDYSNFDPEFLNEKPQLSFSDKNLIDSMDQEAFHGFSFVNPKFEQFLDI", "experiment": "PKCδ immunoprecipitation kinase assay on substantia nigra of rottlerin-treated mice", "format": "in vivo", "conditions": "5 days", "description": "PKCδ enzymatic activity was assayed using an immunoprecipitation kinase assay as described by Reyland et al. (Reyland, Anderson et al. 1999). Briefly, after treatment with rottlerin, substantia nigra brain tissue were washed once with PBS and resuspended in 1 ml of PKC lysis buffer (25 mM HEPES, pH 7.5, 20 mM β-glycerophosphate, 0.1 mM sodium orthovanadate, 0.1% Triton X-100, 0.3 M NaCl, 1.5 mM MgCl2, 0.2 mM EDTA, 0.5 mM DTT, 10 mM NaF, and 4 μg/ml each aprotonin and leupeptin). The lysates were allowed to sit on ice for 30 min and centrifuged at 13,000×g for 5 min, and the supernatants were collected as cytosolic fraction. Protein concentration was determined using a Bradford assay. Cytosolic protein (0.25-0.5 mg) was immunoprecipitated overnight at 4° C. using 2 μg of anti-PKCδ antibody. The immunoprecipitates were then incubated with Protein-A Sepharose (Sigma) for 1 hr at 4° C. The protein A bound antigen-antibody complexes were then washed three times with PKC lysis buffer, three times with 2× kinase buffer (40 mM Tris, pH 7.4, 20 mM MgCl2, 20 μM ATP, and 2.5 mM CaCl2), and resuspended in 20 μl of 2× kinase buffer. Reaction was started by adding 20 μl of reaction buffer containing 0.4 mg Histone H1, 50 μg/ml phosphatidylserine, 4.1 μM dioleoylglycerol, and 5 μCi of [γ-^32P] ATP (3000 Ci/mM) to the immunoprecipitated samples and incubated for 10 min at 30° C. SDS gel-loading buffer (2×) was added to terminate the reaction, the samples were boiled for 5 min, and the products were separated on a 12.5% SDS-PAGE gel. The H1 phosphorylated bands were detected using a Personal Molecular Imager (FX model; Bio-Rad), and quantification was done using Quantity One 4.2.0 software."}, "[2]": {"test_system": "MPTP-treated C57 black mice", "experiment": "MPTP-induced striatal dopamine depletion (HPLC-EC)", "format": "in vivo", "method": "Six to 8-week-old […] mice weighing 30 g were housed in standard conditions: constant temperature (22±1° C.), humidity (relative, 30%) and a 12-h light/dark cycle, and were allowed free access to food and water. The animals and protocol procedures were approved and supervised by the Committee on Animal Care (COAC) at the Iowa State University. Rottlerin was dissolved in 1% dimethyl sulfoxide (DMSO) and was administered intraperitoneally at various doses. An equal volume of DMSO was given to controls. Rottlerin and DMSO administrations were started 24 h before the injections of the MPTP and continued for 5 days in the MPTP model. In the chronic regimens of MPTP administration, MPTP in phosphate-buffered saline (PBS) was injected intraperitoneally at doses of 30 mg/kg, once a day. Mice were sacrificed 2 days after the MPTP injections, and the striata were dissected for catecholamine analysis. Additionally, rottlerin alone (0.3-20 mg/kg) was administered via intraperitoneally or orally and then brain tissues were subjected to neurochemical analyses (FIG. 8). The mesencephalons were fixed in 4% paraformaldehyde for 5 days for tyrosine hydroxylase (TH) immunostaining.\nDA and DOPAC levels in brain striatal tissues were determined by high-performance liquid chromatography with electrochemical detection (HPLC-EC); samples were prepared as described previously (Kitazawa, Anantharam et al. 2001). Briefly, neurotransmitters were extracted from samples using 0.1M perchloric acid containing 0.05% Na2EDTA and 0.1% Na2S2O5. The extracts were filtered in 0.22 micron spin tubes and 20 μl of the samples was loaded for analysis. DA and DOPAC were separated isocratically by a reversed-phase column with a flow rate of 0.7 ml/min. An HPLC system (ESA Inc., Bedford, Mass.) with an ESA automatic sampler (model 542) was used for these experiments. The electrochemical detection (EC) system consisted of an ESA coulochem model 5100A with a microanalysis cell model 5014A and a guard cell model 5020 (ESA Inc., Bedford, Mass.). The DA and DOPAC levels were measured as pg/mg protein and expressed as percent of control."}, "[3]": {"test_system": "tyrosine hydroxylase (TH)", "experiment": "TH phosphorylation in PC12 cells (immunoblot, immunofluorescence)", "format": "cell-based", "conditions": "3 μM rottlerin for 3 hr", "method": "(§1) PC12 cells, differentiated N27 dopaminergic cells and primary mesencephalic neurons were exposed to 1-10 μM rottlerin for the duration of the experiment. DMSO (0.01%) was used as vehicle control. PKCδ-DN- and Lac Z-expressing N27 cells were only treated with 0.01% DMSO. […] Untreated or vehicle treated cells were used as control samples.\n(§2) Cell and brain lysates containing equal amounts of protein were loaded in each lane and separated on a 10-12% SDS-PAGE gel as described previously (Kaul et al., 2003). After the separation, proteins were transferred to nitrocellulose membrane, and nonspecific binding sites were blocked by treating with 5% nonfat dry milk powder. The membranes were then treated with primary antibodies directed against PKCδ (rabbit polyclonal or mouse monoclonal, 1:2000 dilution), TH (rabbit polyclonal or mouse monoclonal, 1:1000), phospho TH-ser40 (rabbit polyclonal, 1:1000), phospho TH-ser31 TH (rabbit polyclonal, 1:1000), or PP2A (mouse monoclonal, 1:1000). The primary antibody treatments were followed by treatment with secondary HRP-conjugated anti-rabbit or anti-mouse IgG (1:2000) for 1 hr at RT. Secondary antibody-bound proteins were detected using Amersham's ECL chemiluminescence kit. To confirm equal protein loading, blots were reprobed with a β-actin antibody (1:5000 dilution). Western blot images were captured with a Kodak 2000 MM imaging system and data were analyzed using 1D Kodak imaging analysis software.\n(§3) Immunostaining of PKCδ, TH, Ser40 P-TH and Ser31 P-TH was performed in PC12, N27 and primary mesencephalic neurons. Cells were grown on poly-L-Lysine-coated glass cover slips. After treatment, the cells were fixed with 4% paraformaldehyde and processed for immunohistochemical staining. First, non-specific sites were blocked with 5% normal goat serum containing 0.4% BSA and 0.2% Triton-X 100 in PBS for 20 min. Cells were then incubated with antibodies directed against PKCδ (1:500 dilution), TH (1:500 dilution), and P-THSer40 (1:500 dilution) overnight at 4° C. followed by incubation with either Alexa 488-conjugated (green, 1:1000) or Cy3-conjugated (red, 1:1000) secondary antibody for 1 hr at RT. Secondary antibody treatments were followed by incubation with Hoechst 33342 (10 μg/ml) for 3 min at room temperature to stain the nucleus. Then the coverslips containing stained cells were washed with PBS, mounted on a slide, and viewed under a Nikon inverted fluorescence microscope (Model TE-2000U); images were captured with a SPOT digital camera (Diagnostic Instruments, Sterling Heights, Mich.)."}, "N27 cells": {"test_system": "N27 cells", "experiment": "Cellular DA and DOPAC levels in N27 cells (HPLC-EC)", "format": "cell-based, rat", "conditions": "N27 cells; rottlerin vs vehicle, PKCδ-DN vs LacZ", "method": "as §1\nDA and DOPAC levels in PC12, N27 cells and in brain striatal tissues were determined by high-performance liquid chromatography with electrochemical detection (HPLC-EC); samples were prepared as described previously (Kitazawa et al., 2001). The DA and DOPAC levels were measured as pg/mg protein and expressed as percent of control."}, "[4]": {"test_system": "tyrosine hydroxylase (TH)", "experiment": "TH phosphorylation in N27 cells (Western blot, immunofluorescence)", "format": "cell-based, rat", "conditions": "N27 cells", "method": "as §1, §2, §3"}, "PP2A": {"test_system": "PP2A", "experiment": "PP2A phosphatase activity in N27 cells (Serine/Threonine phosphatase assay kit)", "format": "cell-based, rat", "conditions": "rottlerin vs DMSO, PKCδ-DN vs LacZ", "method": "To determine PP2A phosphatase activity, we used the Serine/Threonine phosphatase assay kit from Promega. Briefly, N27 cells and substantia nigral tissue from mouse brain were homogenized in lysis buffer (25 mM Tris-HCl, 10 mM β-mercaptoethanol, 2 mM EDTA, protease inhibitor) supplied with the kit. After centrifugation, the supernatants were used for the assay. PP2A activity was determined by measuring the amount of free phosphate generated in a reaction by measuring the absorbance of a molybdate:malachite green: phosphate complex at 600 nm using the Spectramax plate reader (Molecular Devices). The effective range for the detection of phosphate released in this assay is 100-4,000 pmol of phosphate."}, "PKCδ [5]": {"target": "PKCδ (Homo sapiens, UniProt Q05655)", "sequence (Q05655 whole entry)": "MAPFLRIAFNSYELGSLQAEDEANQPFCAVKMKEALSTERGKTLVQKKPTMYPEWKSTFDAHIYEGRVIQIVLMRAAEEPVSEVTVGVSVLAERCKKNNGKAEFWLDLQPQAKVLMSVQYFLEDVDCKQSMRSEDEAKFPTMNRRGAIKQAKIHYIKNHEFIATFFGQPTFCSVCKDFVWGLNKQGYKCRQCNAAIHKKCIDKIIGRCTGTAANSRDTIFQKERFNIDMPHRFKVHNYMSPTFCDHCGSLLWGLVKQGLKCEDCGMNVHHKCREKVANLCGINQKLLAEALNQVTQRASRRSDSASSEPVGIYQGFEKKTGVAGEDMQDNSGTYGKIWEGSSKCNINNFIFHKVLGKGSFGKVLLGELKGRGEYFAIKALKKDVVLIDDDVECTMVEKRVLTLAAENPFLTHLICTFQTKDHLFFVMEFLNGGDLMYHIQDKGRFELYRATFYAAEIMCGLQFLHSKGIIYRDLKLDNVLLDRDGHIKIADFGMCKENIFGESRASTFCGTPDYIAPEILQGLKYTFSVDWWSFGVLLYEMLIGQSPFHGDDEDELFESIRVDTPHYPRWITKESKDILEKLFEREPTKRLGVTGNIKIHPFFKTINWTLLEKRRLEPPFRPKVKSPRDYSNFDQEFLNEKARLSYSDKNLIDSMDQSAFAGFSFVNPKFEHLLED", "conditions": "cited from earlier work"}, "SRC kinase": {"target": "SRC kinase (Homo sapiens, UniProt P12931)", "sequence (P12931 whole entry)": "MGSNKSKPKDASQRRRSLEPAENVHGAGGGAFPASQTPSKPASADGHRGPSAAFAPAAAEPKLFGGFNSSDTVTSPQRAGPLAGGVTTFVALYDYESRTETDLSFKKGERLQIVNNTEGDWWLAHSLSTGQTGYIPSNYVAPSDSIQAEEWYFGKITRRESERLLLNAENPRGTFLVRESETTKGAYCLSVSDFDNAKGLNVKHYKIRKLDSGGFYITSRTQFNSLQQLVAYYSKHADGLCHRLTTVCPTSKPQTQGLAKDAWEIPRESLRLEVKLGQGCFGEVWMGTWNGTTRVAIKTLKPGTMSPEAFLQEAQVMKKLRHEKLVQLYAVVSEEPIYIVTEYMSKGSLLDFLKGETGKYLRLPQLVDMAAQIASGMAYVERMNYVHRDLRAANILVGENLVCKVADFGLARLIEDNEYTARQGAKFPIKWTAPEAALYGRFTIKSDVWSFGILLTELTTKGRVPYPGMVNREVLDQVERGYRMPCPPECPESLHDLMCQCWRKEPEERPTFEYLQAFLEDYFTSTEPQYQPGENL", "conditions": "cited from earlier work"}}}
{"smiles": "CC(=O)c1c(O)c(C)c(O)c(Cc2c(O)c3c(c(C(=O)/C=C/c4ccccc4)c2O)OC(C)(C)C=C3)c1O", "note": "[rottlerin]", "values": [{"measurement": "reduction in the kinase activity in SN", "setting": "PKCδ [1]; i.p. injection with 3 mg rottlerin", "value": "more than 30%"}, {"measurement": "reduction in the kinase activity in SN", "setting": "PKCδ [1]; i.p. injection with 7 mg rottlerin", "value": "more than 30%"}, {"measurement": "decrease in protein kinase activity in SN (phosphorylated histone H1 bands)", "setting": "PKCδ [1]; orally treated with 10 mg rottlerin", "value": 40, "unit": "%"}, {"measurement": "decrease in protein kinase activity in SN (phosphorylated histone H1 bands)", "setting": "PKCδ [1]; orally treated with 20 mg rottlerin", "value": 50, "unit": "%"}, {"measurement": "protection against dopamine loss induced by MPTP toxicity in striatum", "setting": "[2]; 20 mg/kg rottlerin", "value": 50, "unit": "%"}, {"measurement": "MPTP-induced decrease in dopamine and metabolite levels", "setting": "[2]; oral 20 mg/kg and i.p. 3, 7 and 10 mg/kg rottlerin, dose-dependent", "value": "significantly antagonized"}, {"measurement": "dopamine level in striatum", "setting": "[2]; rottlerin 20 mg/kg + MPTP 30 mg/kg for 5 days", "value": "112.8±25.32", "unit": "pg/mg tissue weight"}, {"measurement": "TH-ser40 phosphorylation, densitometry of 60 kDa band, increase versus vehicle", "setting": "[3]", "value": 3, "unit": "fold"}, {"measurement": "THser31 phosphorylation level", "setting": "[3]", "value": "unaltered"}, {"measurement": "level of total TH", "setting": "[3]", "value": "unaltered"}, {"measurement": "increase in TH-ser40 stained cells compared to DMSO-treated cells", "setting": "[3]; immunofluorescence cell count", "value": 333, "unit": "%"}, {"measurement": "DA level", "setting": "N27 cells", "value": "2748±208", "unit": "pg/μg protein"}, {"measurement": "DOPAC levels", "setting": "N27 cells", "value": "2564±848.19", "unit": "pg/μg protein"}, {"measurement": "increase in DA level", "setting": "N27 cells", "value": 4, "unit": "fold"}, {"measurement": "increase in DOPAC levels", "setting": "N27 cells", "value": 4, "unit": "fold"}, {"measurement": "level of total TH", "setting": "[4]", "value": "unaltered"}, {"measurement": "reduction of PP2A activity", "setting": "PP2A", "value": 31, "unit": "%"}, {"measurement": "IC50", "setting": "PKCδ [5]", "value": "3 to 6", "unit": "µM"}, {"measurement": "inhibition", "setting": "SRC kinase", "value": "inactive"}]}
